{"source": "patent US8865967B2", "about": "(priority 2010, dated 2014)", "tested_on": "Colletotrichum graminicola (CGR; isolate Carroll-IA-99)", "assay_type": "cell-based", "conditions": "in words, variant after one round of DNA shuffling", "data": [{"substance": "Pp-PDF1-1C-7A4: Pp-PDF1 variant from first shuffling round (RVCEKPSKFFKGLCGSDRDCTNACRKEGLATGECQSKGFFNSVCVCKKPC; Synthetic sequence obtained from DNA shuffling of a plant sequence.)", "values": [{"measurement": "in vitro inhibitory activity against Colletotrichum graminicola", "result": "significantly improved"}]}]}
